In this test the target is CD73 (Homo sapiens (Human), UniProt P21589). The test is described as follows: Biochemical Assay (CD73 inhibition, AMP hydrolysis, Malachite Green readout). Particulars: CD73 0.3208 nM, AMP 15 μM, Tris-HCl pH 7.4, Malachite Green absorbance. On the procedure:
Example A1: Biochemical Assay
Assay Reaction Conditions
• Assay Volume: 70 μl • Reaction Volume: 50 μl • CD73: 0.3208 nM • AMP: 15 μM • Assay Buffer: 2 5 mM Tris-HCL, pH 7.4, 0.01% Brij-35, 0.01% BSA, 5 mM MgCl2 Assay Procedure:
Made dose titration of testing compounds in assay buffer, 10 points ½ log titrations in duplicates starting at 100 μM.
Added 25 μl of CD73 to each well for a final concentration of 320 pM.
Incubated at RT for 15 min.
Added 25 μl of AMP to each well for a final concentration of 15 μM.
Incubated at RT for 10 min.
Added 10 μl of Malachite Green Reagent A, incubate at RT for 10 min.
Added 10 μl of Malachite Green Reagent B, incubate at RT for 45 min. […]
The ability of the compounds disclosed herein to inhibit CD73 activity was quantified and the respective IC50 values were determined. Table 1 provides the biochemical IC50 values of compounds disclosed herein.
CD73, sequence (P21589 27-574): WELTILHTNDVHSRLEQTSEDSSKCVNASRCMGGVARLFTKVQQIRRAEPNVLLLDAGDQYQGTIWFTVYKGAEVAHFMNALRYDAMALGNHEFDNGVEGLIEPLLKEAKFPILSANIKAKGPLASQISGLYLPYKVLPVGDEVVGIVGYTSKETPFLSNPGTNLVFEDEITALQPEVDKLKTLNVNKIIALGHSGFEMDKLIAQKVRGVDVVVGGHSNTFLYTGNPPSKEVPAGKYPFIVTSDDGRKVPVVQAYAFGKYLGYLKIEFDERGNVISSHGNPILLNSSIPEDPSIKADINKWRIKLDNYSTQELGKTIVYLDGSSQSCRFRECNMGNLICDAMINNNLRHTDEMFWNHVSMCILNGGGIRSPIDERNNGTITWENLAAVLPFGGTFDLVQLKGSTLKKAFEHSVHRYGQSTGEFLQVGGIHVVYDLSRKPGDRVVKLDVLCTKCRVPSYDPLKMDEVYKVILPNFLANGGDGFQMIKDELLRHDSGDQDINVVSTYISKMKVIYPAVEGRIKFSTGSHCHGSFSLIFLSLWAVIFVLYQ
On to `O=P(O)(O)COC[C@H]1O[C@@H](n2ncc3c(NCc4cccc5ncccc45)nc(Cl)nc32)[C@H](O)[C@@H]1O` [Example 51, ((((2R,3S,4R,5R)-5-(6-chloro-4-((quinolin-5-ylmethyl)amino)-1H-pyrazolo[3,4-d]pyrimidin-1-yl)-3,4-dihydroxytetrahydrofuran-2-yl)methoxy)methyl)phosphonic acid], for which the IC50 is at most 500 nM.
Consider `CC1CCCC1Nc1nc(Cl)nc2c1cnn2[C@@H]1O[C@H](CS(=O)(=O)CP(=O)(O)O)[C@@H](O)[C@H]1O` (stereo partly drawn) [Example 128, (((((2S,3S,4R,5R)-5-(6-chloro-4-((2-methylcyclopentyl)amino)-1H-pyrazolo[3,4-d]pyrimidin-1-yl)-3,4-dihydroxytetrahydrofuran-2-yl)methyl)sulfonyl)methyl)phosphonic acid], for which the IC50 was at most 500 nM.
Turning to `CC1(C)CCC[C@H]1Nc1nc(Cl)nc2c1cnn2[C@@H]1O[C@H](COCP(=O)(O)O)[C@@H](O)[C@H]1O` [Example 103, ((((2R,3S,4R,5R)-5-(6-chloro-4-(((R)-2,2-dimethylcyclopentyl)amino)-1H-pyrazolo[3,4-d]pyrimidin-1-yl)-3,4-dihydroxytetrahydrofuran-2-yl)methoxy)methyl)phosphonic acid], the IC50 was at most 500 nM.
To `CN(Cc1cccc(Cl)c1)c1nc(Cl)nc2c1nnn2[C@@H]1O[C@H](COCP(=O)(O)O)[C@@H](O)[C@H]1O` [Example 39, ((((2R,3S,4R,5R)-5-(5-chloro-7-((3-chlorobenzyl)(methyl)amino)-3H-[1,2,3]triazolo[4,5-d]pyrimidin-3-yl)-3,4-dihydroxytetrahydrofuran-2-yl)methoxy)methyl)phosphonic acid] belongs at most 500 nM; to `O=P(O)(O)CSC[C@H]1O[C@@H](n2ncc3c(NCc4ccccc4Cl)nc(Cl)nc32)[C@H](O)[C@@H]1O` [Example 13, (((((2S,3S,4R,5R)-5-(6-Chloro-4-((2-chlorobenzyl)amino)-1H-pyrazolo[3,4-d]pyrimidin-1-yl)-3,4-dihydroxytetrahydrofuran-2-yl)methyl)thio)methyl)phosphonic acid], at most 500 nM; to `O=P(O)(O)CS(=O)(=O)C[C@H]1O[C@@H](n2ncc3c(NCc4ccc(F)cc4)nc(Cl)nc32)[C@H](O)[C@@H]1O` [Example 117, (((((2S,3S,4R,5R)-5-(6-chloro-4-((4-fluorobenzyl)amino)-1H-pyrazolo[3,4-d]pyrimidin-1-yl)-3,4-dihydroxytetrahydrofuran-2-yl)methyl)sulfonyl)methyl)phosphonic acid], at most 500 nM.
On to `O=P(O)(O)COC[C@H]1O[C@@H](n2nnc3c(NC4CCCC4)nc(Cl)nc32)[C@H](O)[C@@H]1O` [Example 95, ((((2R,3S,4R,5R)-5-(5-chloro-7-(cyclopentylamino)-3H-[1,2,3]triazolo[4,5-d]pyrimidin-3-yl)-3,4-dihydroxytetrahydrofuran-2-yl)methoxy)methyl)phosphonic acid], for which the IC50 was at most 500 nM.
Turning to `Cc1cccc(CNc2nc(Cl)nc3c2cnn3[C@@H]2O[C@H](COCP(=O)(O)O)[C@@H](O)[C@H]2O)c1` [Example 41, ((((2R,3S,4R,5R)-5-(6-chloro-4-((3-methylbenzyl)amino)-1H-pyrazolo[3,4-d]pyrimidin-1-yl)-3,4-dihydroxytetrahydrofuran-2-yl)methoxy)methyl)phosphonic acid], the IC50 was at most 500 nM.
Molecule `CC1(C)CCC[C@@H]1Nc1nc(Cl)nc2c1cnn2[C@@H]1O[C@H](COCP(=O)(O)O)[C@@H](O)[C@H]1O` [Example 102, ((((2R,3S,4R,5R)-5-(6-chloro-4-(((S)-2,2-dimethylcyclopentyl)amino)-1H-pyrazolo[3,4-d]pyrimidin-1-yl)-3,4-dihydroxytetrahydrofuran-2-yl)methoxy)methyl)phosphonic acid] registered an IC50 of at most 500 nM.
In the case of `O=P(O)(O)COC[C@H]1O[C@@H](n2ncc3c(NCc4cccc(Cl)c4F)nc(Cl)nc32)[C@H](O)[C@@H]1O` [Example 58, ((((2R,3S,4R,5R)-5-(6-chloro-4-((3-chloro-2-fluorobenzyl)amino)-1H-pyrazolo[3,4-d]pyrimidin-1-yl)-3,4-dihydroxytetrahydrofuran-2-yl)methoxy)methyl)phosphonic acid] it was at most 500 nM; in that of `O=P(O)(O)COC[C@H]1O[C@@H](n2ccc3c(NC4CCCC4)nc(Cl)nc32)[C@H](O)[C@@H]1O` [Example 137, ((((2R,3S,4R,5R)-5-(2-chloro-4-(cyclopentylamino)-7H-pyrrolo[2,3-d]pyrimidin-7-yl)-3,4-dihydroxytetrahydrofuran-2-yl)methoxy)methyl)phosphonic acid], at most 500 nM; in that of `O=P(O)(O)COC[C@H]1O[C@@H](n2ncc3c(NCc4ncccn4)nc(Cl)nc32)[C@H](O)[C@@H]1O` [Example 90, ((((2R,3S,4R,5R)-5-(6-chloro-4-((pyrimidin-2-ylmethyl)amino)-1H-pyrazolo[3,4-d]pyrimidin-1-yl)-3,4-dihydroxytetrahydrofuran-2-yl)methoxy)methyl)phosphonic acid], 500 to 1000 nM.
With `C[C@H](OCP(=O)(O)O)[C@H]1O[C@@H](n2ncc3c(NCc4ccccc4Cl)nc(Cl)nc32)[C@H](O)[C@@H]1O` [Example 50, (((S)-1-((2S,3S,4R,5R)-5-(6-chloro-4-((2-chlorobenzyl)amino)-1H-pyrazolo[3,4-d]pyrimidin-1-yl)-3,4-dihydroxytetrahydrofuran-2-yl)ethoxy)methyl)phosphonic acid], the IC50 is over 1000 nM.
In the case of `CN(CC1CC1)c1nc(Cl)nc2c1cnn2[C@@H]1O[C@H](CS(=O)(=O)CP(=O)(O)O)[C@@H](O)[C@H]1O` [Example 84, (((((2S,3S,4R,5R)-5-(6-chloro-4-((cyclopropylmethyl)(methyl)amino)-1H-pyrazolo[3,4-d]pyrimidin-1-yl)-3,4-dihydroxytetrahydrofuran-2-yl)methyl)sulfonyl)methyl)phosphonic acid] it was at most 500 nM; in that of `O=C(CP(=O)(O)O)OC[C@H]1O[C@@H](n2ncc3c(NCc4ccccc4Cl)nc(Cl)nc32)[C@H](O)[C@@H]1O` [Example 1, (2-(((2R,3S,4R,5R)-5-(6-Chloro-4-((2-chlorobenzyl)amino)-1H-pyrazolo[3,4-d]pyrimidin-1-yl)-3,4-dihydroxytetrahydrofuran-2-yl)methoxy)-2-oxoethyl)phosphonic acid], at most 500 nM.
The molecule `CN(c1nc(Cl)nc2c1cnn2[C@@H]1O[C@H](COC(=O)CP(=O)(O)O)[C@@H](O)[C@H]1O)[C@H]1CCc2ccccc21` [Example 8, (2-(((2R,3S,4R,5R)-5-(6-Chloro-4-(((S)-2,3-dihydro-1H-inden-1-yl)(methyl)amino)-1H-pyrazolo[3,4-d]pyrimidin-1-yl)-3,4-dihydroxytetrahydrofuran-2-yl)methoxy)-2-oxoethyl)phosphonic acid] had an IC50 of 500 to 1000 nM.
In the case of `O=P(O)(O)CS(=O)(=O)C[C@H]1O[C@@H](n2ncc3c(NCc4cccc(Cl)c4)nc(Cl)nc32)[C@H](O)[C@@H]1O` [Example 61, (((((2S,3S,4R,5R)-5-(6-chloro-4-((3-chlorobenzyl)amino)-1H-pyrazolo[3,4-d]pyrimidin-1-yl)-3,4-dihydroxytetrahydrofuran-2-yl)methyl)sulfonyl)methyl)phosphonic acid] it was at most 500 nM; in that of `O=P(O)(O)CS(=O)(=O)C[C@H]1O[C@@H](n2ncc3c(NC4CCC4)nc(Cl)nc32)[C@H](O)[C@@H]1O` [Example 107, (((((2S,3S,4R,5R)-5-(6-chloro-4-(cyclobutylamino)-1H-pyrazolo[3,4-d]pyrimidin-1-yl)-3,4-dihydroxytetrahydrofuran-2-yl)methyl)sulfonyl)methyl)phosphonic acid], at most 500 nM.
As to `CC(C)CNc1nc(NCc2cccc(Cl)c2)c2cnn([C@@H]3O[C@H](COCP(=O)(O)O)[C@@H](O)[C@H]3O)c2n1` [Example 67, ((((2R,3S,4R,5R)-5-(4-((3-chlorobenzyl)amino)-6-(isobutylamino)-1H-pyrazolo[3,4-d]pyrimidin-1-yl)-3,4-dihydroxytetrahydrofuran-2-yl)methoxy)methyl)phosphonic acid], the IC50 was over 1000 nM.
Molecule `C[C@H]1CCC[C@H]1Nc1nc(Cl)nc2c1cnn2[C@@H]1O[C@H](COCP(=O)(O)O)[C@@H](O)[C@H]1O` [Example 105, ((((2R,3S,4R,5R)-5-(6-chloro-4-(((1R,2S)-2-methylcyclopentyl)amino)-1H-pyrazolo[3,4-d]pyrimidin-1-yl)-3,4-dihydroxytetrahydrofuran-2-yl)methoxy)methyl)phosphonic acid] came in with a 50% inhibitory concentration (IC50) of at most 500 nM.
Molecule `C[C@H](Nc1nc(Cl)nc2c1cnn2[C@@H]1O[C@H](CS(=O)(=O)CP(=O)(O)O)[C@@H](O)[C@H]1O)c1ccccc1Cl` [Example 129, (((((2S,3S,4R,5R)-5-(6-chloro-4-(((S)-1-(2-chlorophenyl)ethyl)amino)-1H-pyrazolo[3,4-d]pyrimidin-1-yl)-3,4-dihydroxytetrahydrofuran-2-yl)methyl)sulfonyl)methyl)phosphonic acid] had an IC50 of at most 500 nM.
To `O=P(O)(O)COC[C@H]1O[C@@H](n2ccc3c(NCc4ccccc4Cl)nc(Cl)nc32)[C@H](O)[C@@H]1O` [Example 40, ((((2R,3S,4R,5R)-5-(2-chloro-4-((2-chlorobenzyl)amino)-7H-pyrrolo[2,3-d]pyrimidin-7-yl)-3,4-dihydroxytetrahydrofuran-2-yl)methoxy)methyl)phosphonic acid] belongs at most 500 nM.

Source of the values: patent US11377469B2, “CD73 inhibitors” (ORIC Pharmaceuticals, Inc., priority 2017, dated 2022).
